The source of these data is patent US12391799B2, “Peptoid polymers and methods of use” (X-Therma, Inc., priority 2017, dated 2025).

Series [1] can be described thus: Crystallographic x-ray diffraction (XRD) ice crystal formation assay. Type of series: physicochemical. The procedure:
In order to increase the throughput of library analysis, a crystallographic x-ray diffraction (XRD) technique was used to evaluate ice crystal formation. For these experiments, the compounds named “Compound 2,” “Compound 8,” “Compound 10,” “Compound 11,” “Compound 12,” “Compound 13,” and “Compound 58” were tested. Compound 58 is similar to Compound 12, except that an arginine amino acid has been appended to the N-terminal end.
For these experiments, EG concentrations between 15% and 30% (v/v) were used. Typically, EG, DMSO, and other cryoprotectants are used during XRD sample analysis at concentrations of 35-40% (v/v) to vitrify solutions and avoid diffraction interference from ice crystals. Concentrations of 1 and 5 mg/mL of the peptoid and peptoid-peptide compounds were used. FIGS. 3A, 3B, and 3C illustrate exemplary XRD data under conditions of complete vitrification, partial vitrification with the presence of cubic ice, and freezing ([…]), respectively. FIG. 3D provides ice rings scores for a variety of EG concentrations and two concentrations of Compounds 2, 8, and 12.
“IceRing1” and “IceRing2” refer to ice formation scores, which range between 0 (no ice formation) and 15 (large ice formation).

The nature of series [2]: Larger volume flash freeze / rewarm / −20° C. storage assay. It counts as physicochemical. The following applies: 22.5% EG. The procedure: In order to test the usefulness of peptoid polymers at larger scales, experiments were performed using solution volumes that are similar to volumes used for standard egg and stem cell preservation. For these experiments, two samples, one containing 22.5% EG and buffer only, and another containing 22.5% EG and 5 mg/ml (0.5% w/v) of Compound 12 and buffer, were flash frozen in liquid nitrogen. […] The rewarming of the solutions in a 37° C. water bath led to an unexpected and beneficial result. The Compound 12 solution bypassed devitrification in less than 2 seconds upon rewarming (FIG. 6B, right), whereas chunks of ice were seen floating in the control sample (FIG. 6B, left) after 20 seconds. Condensation was seen on each of the tubes because the tubes were actually still much below room temperature.

In the next series the test system is HEK 293 cell line. The experiment in a line: Cell-based cytotoxicity assay (MTT). Further details: species or system human. The method, then: A Tecan Genesis Robotic Workstation was used to prepare solutions in 96- and 384-well plates. Solutions contained culture media, buffers, a cryoprotectant composition (Compound 12) or DMSO. Solutions were adjusted to the desired pH. Serial dilutions were performed to obtain solutions containing various concentrations of Compound 12 and DMSO. Control experiments were performed using only culture media.
For these experiments, cells were seeded at low density (i.e., 10% confluence), exposed to solutions containing Compound 12 or DMSO, and placed in a 37° C. incubator. The cells were allowed to grow until control cells that were treated only with empty vehicle approached 70% confluence (typically about 3 to 5 days). Assessment for compound cytotoxicity was via MTT assay.

The subject of another series is HEK 293 cells. The experiment in a line: Cryopreservation assay, flash freezing in liquid nitrogen, Calcein AM viability. Type of series: cell-based, human. The procedure:
Initial cryopreservation assays were performed using very simple solutions, with and without the addition of Compound 12, in order to minimize confounding outside factors. For this first set of experiments, two sample solutions were prepared. The first sample solution contained simple buffer and ethylene glycol (EG) at a concentration of 22.5% (v/v), and the second sample solution contained simple buffer, EG (22.5% (v/v)), and 5 mg/mL (0.5% (w/v)) of Compound 12.
HEK 293 cells were grown until 70% confluent, then treated with trypsin to remove adhesion proteins and yield free floating cells. Cells were counted using a hemocytometer and sample cell concentrations were adjusted to final concentrations of 10,000 cells per microliter. Cells were then compressed into tight pellets by centrifugation, and each sample was subsequently mixed with 20 μL of one of the sample solutions. Samples were then flash frozen by immersion in liquid nitrogen, followed by rewarming in a 37° C. water bath. After the freeze-thaw process, cells were suspended in a 400× volume of culture media for recovery. The positive control sample was treated with culture media at 37° C. and not subjected to the freeze-thaw process. The negative control sample was treated with culture media only during the freeze-thaw process. After recovery, cells were stained with Calcein AM for 30 minutes and cell viability was measured using a fluorescence plate reader.
A second set of experiments was performed to evaluate the cryopreservation potential of a formulation that contained 5 mg/mL of Compound 12 plus a mixture of glycols, disaccharides, and a general buffer. Post-thaw survival following vitrification in liquid nitrogen was evaluated as described above.

Series [3] in a line: Vitrification screening assay (critical EG concentration). It counts as physicochemical. The following applies: lowest EG for complete vitrification of 20 μL sample, 5 mg/mL peptoid in formulation, liquid nitrogen immersion. The procedure:
As another means of increasing the throughput of library analysis, a vitrification screening assay was performed to evaluate anti-icing efficacy. For these experiments the compounds named “Compound 11,” “Compound 12,” “Compound 25,” Compound 26,” “Compound 27,” “Compound 28,” “Compound 60,” “Compound 62,” “Compound 63,” “Compound 64,” “Compound 69,” “Compound 70,” “Compound 71,” “Compound 72,” “Compound 73,” “Compound 74,” “Compound 75,” “Compound 76,” “Compound 77,” “Compound 78,” “Compound 81,” “Compound 82,” “Compound 83,” “Compound 84,” and “Compound 85” were tested.
For these experiments, 20 μL samples were flash frozen by liquid immersion in liquid nitrogen. Ethylene glycol (EG) concentrations between 5% and 25% (v/v) were used. A concentration of 5 mg/mL of peptoid polymer compounds were used in formulation. Table 12 lists the lowest concentration of EG necessary to bring about complete vitrification of a 20 μL sample with peptoid polymer in formulation, referred to as the “critical EG concentration.” A sample of formulation without the presence of a peptoid polymer was only able to bring about vitrification at 20% or more EG. Peptoid polymers of interest were able to bring about vitrification within formulas containing EG when the concentration of EG was lower than 20%.

The subject of series [4] is K562 cells. The series can be described thus: K562 viability after storage at −20° C. for 3 days (Alamar Blue). As to conditions: 1% peptoid in XT Formula, K562 stored at −20° C. for 3 days, vs. XT Formula alone. It counts as cell-based. The method, then: Several compounds were examined in XT Formula at 1% concentration (i.e., 1% peptoid polymer concentration) for their ability to increase the viability of cells subjected to super-cooled storage. XT Formula contains HTK buffer, among other components. In particular, the effects of these compounds on the viability of K562 cells stored at −20° C. for 3 days were evaluated. An Alamar Blue assay was used to assess cell viability 7 days after stored cells were thawed.
In general terms: The colour change of resazurin is a common sign of viable cells or microbes.

Series [5] concerns K562 cells. The experiment in a line: Cell toxicity assay in K562 cell culture. It counts as cell-based. The following applies: 1% concentration, 24 hours at 37° C. and 5% CO2.
Description: The cytotoxicity of several compounds were evaluated using a typical cell toxicity assay in K562 cell culture. […] As a positive control, some cells were incubated without any peptoid polymer (DMEM). For a negative control, cells were incubated with DMSO (DMEM+10% DMSO).
Series [6] concerns K562 cells. The series can be described thus: K562 survival after storage at −80° C. for 3 days (Alamar Blue). It counts as cell-based. As to conditions: 1% peptoid in XT Formula, K562 stored at −80° C. for 3 days. The method, then: Several compounds were examined in XT Formula at 1% concentration (i.e., 1% peptoid polymer concentration) for their effects on the cryopreservation of cells. In particular, the effects of these compounds on the survival of K562 cells stored at −80° C. for 3 days were evaluated. An Alamar Blue assay was used to assess cell survival 1 day after stored cells were thawed. A 10% DMSO formula and DMEM cell media only were used as controls.

For series [7] the following is noted: 160 mM ethylene glycol in MilliQ water, slow cooled, −20° C., one hour. The method, then:
In this experiment, four water-based samples were prepared in capillary tubes containing MilliQ purified water. One sample contained only water, and another sample contained 160 mM ethylene glycol (EG). The other two samples each contained a peptoid polymer at 9 mM.
After sample preparation, all samples were slow cooled and incubated at −20° C. on a Peltier cooled plate. After one hour, samples were removed and immediately photographed using a digital camera attached to a 180× Stereo Zoom microscope (FIG. 2A).

SMILES strings stand for the structures. “Also recorded” adds a separate entry of the source.

In the case of `CCC(C)NCC(=O)N(CC(=O)N(CC(=O)N(CC(=O)N(CC(=O)N(CC(=O)N(CC(=O)N(CC(=O)N(CC(=O)N(CC(N)=O)C(C)CC)C(C)CC)CC(C)O)CC(C)O)C(C)CC)C(C)CC)CC(C)O)CC(C)O)C(C)CC` (stereo not drawn) [Compound 12, Nsb-Nsb-Nhp-Nhp-Nsb-Nsb-Nhp-Nhp-Nsb-Nsb], in series [1] (5 mg/mL (0.5% (w/v)), EG 17.5% (v/v) in water, stream of liquid nitrogen vapor), the “ice formation after flash freezing (XRD)” value is given as “ice-free after flash freezing”. Moreover, the “anti-icing effect in comparison to EG at the same molar concentration” value in series [1] (5 mg/mL with EG 17.5% (v/v)) is on record as 500 times. Also, the “reduction of necessary EG concentration while preventing ice formation (XRD ice ring scores)” value in series [1] (1 and 5 mg/mL peptoid, EG 15-30% (v/v)) is “significantly reduced necessary EG concentrations while preventing ice formation”. Moreover, in [2] (5 mg/ml (0.5% w/v) and buffer), the “vitrification on flash freezing in liquid nitrogen” value is “complete vitrification with no ice formation; also recorded: vitrified”. Further, the “state after overnight in −20° C. freezer” value in series [2] (100 μL sample, 5 mg/ml) is given as “remained unfrozen”. For the same compound, the “toxicity by MTT assay” value in the series with HEK 293 cell line (at 0.5% w/v, the concentration that prevents ice formation) is listed as “did not show toxicity”; in the series on HEK 293 cell line (at concentrations four times greater than 0.5% w/v), “did not show significant toxicity”; in the series with HEK 293 cell line (serial dilutions in culture media, 37° C., about 3 to 5 days), “did not significantly deviate from the that of culture media alone”. For the same compound, the “post-thaw survival of the cells” value with HEK 293 cells (formulation: 5 mg/mL of Compound 12 plus a mixture of glycols, disaccharides, and a general buffer, vitrification in liquid nitrogen, 16 hours post-thaw) was 98%. For the same compound, the “vitrification of cell sample during the freezing process” value in the series with HEK 293 cells (simple buffer, EG 22.5% (v/v), 5 mg/mL) is “complete vitrification without ice formation”. In addition, in the series with HEK 293 cells (simple buffer, EG 22.5% (v/v), 5 mg/mL vs. same solution without compound, viability 12 hours post-thaw), the “cell survival after freeze-thaw” value is listed as “greatly improved cell survival”. Moreover, in the series with HEK 293 cells (simple buffer, EG 22.5% (v/v), 5 mg/mL vs. sample lacking compound), the “devitrification of cell sample on rewarming” value is “bypassed much more rapidly”. Also, the “Critical Ethylene Glycol Concentration” value in [3] is recorded as 15.0% (ν/ν). The “cell viability 7 days after thaw” value in the series on K562 cells [4] was “improved cell viability compared to XT Formula alone”. Moreover, in the series on K562 cells [5], the “cytotoxicity (cell persistence)” value was “persisted about as well as cell incubated in cell culture media alone (DMEM)”.

As to `CCC(C)NCC(=O)N(CC(=O)N(CCCN1CCCC1=O)CC(=O)N(CCCN1CCCC1=O)CC(=O)N(CC(=O)N(CC(=O)N(CCCN1CCCC1=O)CC(=O)N(CCCN1CCCC1=O)CC(=O)N(CC(=O)N(CC(N)=O)C(C)CC)C(C)CC)C(C)CC)C(C)CC)C(C)CC` (stereo not drawn) [Compound 76, Nsb-Nsb-Nop-Nop-Nsb-Nsb-Nop-Nop-Nsb-Nsb], the “Critical Ethylene Glycol Concentration” value in [3] is on record as 15.0% (ν/ν). For the same compound, the “cell viability 7 days after thaw” value with K562 cells [4] was “improved cell viability compared to XT Formula alone”. The “cell survival 1 day after thaw” value with K562 cells [6] is “produced the greatest improvement in cell survival”.

As to `OCCO` [EG, ethylene glycol], the “ice crystal formation in capillary tube” value in series [7] is “significant ice crystal formation”.
